# According to article PMC12560828, “Chemical structure drives developmental toxicity of alkyl-substituted naphthalenes in zebrafish” (Environment international, 2025):
# Tests used:
# [1] = test system: zebrafish larvae, 120 hpf; assay: Larval photomotor response (LPR) assay after vial exposure; type: in vivo, Danio rerio; conditions: LPR
# In short: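 Embryos bleached at 6 hpf, exposed in sealed glass vials (8 per vial, DMSO stock at 200x) with rotation overnight at 28 °C, then singulated into chemical-free medium and kept dark at 28 °C. Movement tracked minutes 6–24 at 120 hpf, 6 s bins log-normalized to AUC; LEL per light/dark period from first cycle; nominal water concentrations, dead/malformed larvae excluded.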
# [2] = test system: early life stage zebrafish (Danio rerio) embryos; assay: Developmental toxicity morphology screen, sealed rotating vial exposure; type: in vivo; design: bmd, MO24 / bmd, MORT / bmd, ANY_ / bmd, AXIS / bmd, CRAN / bmd, EDEM / bmd, LTRK / bmd, MUSC / bmdL, ANY_ / bmdU, ANY_ / bmdL, AXIS / bmdU, AXIS / bmdL, CRAN / bmdU, CRAN / bmdL, EDEM / bmdU, EDEM / bmdL, LTRK / bmdU, LTRK / bmdL, MO24 / bmdU, MO24 / bmdL, MORT / bmdU, MORT: unit not given here; conditions: for BMC50 Any effect: Fig. 2 heatmap, exposure 6-24 hpf in vials, summary of all endpoints; for any effect BMD50: SI-T5; for estimated percent Any effect: at 20 μM, 120 hpf, estimated from fitted concentration-response curves
# In short: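 Bleached 6 hpf embryos, eight per sealed glass vial in 2 mL EM, were dosed from a 200x DMSO stock and rotated end-over-end overnight at 28 °C, then moved to chemical-free EM at 24 hpf (32 embryos per treatment). Blinded binary scoring at 120 hpf was pooled as "Any effect". BMC50 is on nominal concentrations.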
# [3] = period dark, round 1, conc 3.125
# [4] = period dark, round 1, conc 6.25
# [5] = period dark, round 1, conc 12.5
# [6] = period dark, round 2, conc 37.5
# [7] = period light, round 1, conc 3.125
# [8] = period light, round 1, conc 6.25
# [9] = period light, round 1, conc 12.5
# [10] = period light, round 2, conc 37.5
# [11] = benchmark dose, morphology endpoint ANY_ (any effect)
# [12] = benchmark dose, morphology endpoint AXIS
# [13] = benchmark dose, morphology endpoint CRAN
structure (smiles),measurement,setting,value
"Cc1cccc2c(C)cccc12 [1,5-dimethylnaphthalene]",fold_change,[1]; [3],0.2385
same,fold_change,[1]; [4],0.04355
same,fold_change,[1]; [5],0.0001175
same,fold_change,"[1]; period dark, round 1, conc 25",-0.1166
same,fold_change,"[1]; period dark, round 2, conc 30",-0.72
same,fold_change,[1]; [6],-0.6231
same,fold_change,[1]; [7],0.2204
same,fold_change,[1]; [8],0.1087
same,fold_change,[1]; [9],0.8122
same,fold_change,"[1]; period light, round 1, conc 25",0.799
same,fold_change,"[1]; period light, round 2, conc 30",0.3918
same,fold_change,[1]; [10],0.2643
same,BMC50 AXIS (curved or bent body axis at 120 hpf),"[2]; Fig. 2, nominal concentration",47.6 µM
same,BMC50 CRAN (craniofacial malformation at 120 hpf),"[2]; Fig. 2, nominal concentration",48.3 µM
same,BMC50 EDEM (pericardial and/or yolk sac edema at 120 hpf),"[2]; Fig. 2, nominal concentration",47.8 µM
same,BMC50 MO24 (mortality at 24 hpf),"[2]; Fig. 2, nominal concentration",no MO24 BMC50
same,BMC50 Any effect,[2]; nominal concentration,36.9 µM
same,any effect BMD50,[2],36.95 µM
same,estimated percent Any effect,[2],13%
same,"bmd, ANY_",[2]; [11],36.9476
same,"bmd, AXIS",[2]; [12],47.5678
same,"bmd, CRAN",[2]; [13],48.2521
same,"bmd, EDEM","[2]; benchmark dose, morphology endpoint EDEM",47.802
"Cc1ccc2cccc(C)c2c1 [1,7-dimethylnaphthalene]",fold_change,[1]; [3],-0.2153
same,fold_change,[1]; [4],-0.5415
same,fold_change,[1]; [5],-0.6708
same,fold_change,"[1]; period dark, round 1, conc 25",-0.6391
same,fold_change,[1]; [7],-0.5634
same,fold_change,[1]; [8],-0.1569
same,fold_change,[1]; [9],-0.05053
same,fold_change,"[1]; period light, round 1, conc 25",0.1308
same,BMC50 AXIS (curved or bent body axis at 120 hpf),"[2]; Fig. 2, nominal concentration",23.9 µM
same,BMC50 LTRK (lower trunk and/or caudal fin at 120 hpf),"[2]; Fig. 2, nominal concentration",30 µM
same,BMC50 MORT (mortality at 120 hpf),"[2]; Fig. 2, nominal concentration",not associated with mortality
same,BMC50 MUSC (muscular/cardiovascular at 120 hpf),"[2]; Fig. 2, nominal concentration",45.7 µM
same,BMC50 Any effect,[2]; nominal concentration,20.1 µM
same,any effect BMD50,[2],20.09 µM
same,estimated percent Any effect,[2],52%
same,"bmd, ANY_",[2]; [11],20.0865
same,"bmd, AXIS",[2]; [12],23.9279
same,"bmd, LTRK","[2]; benchmark dose, morphology endpoint LTRK",29.9891
same,"bmd, MUSC","[2]; benchmark dose, morphology endpoint MUSC",45.7133
"Cc1cc(C)c2c(C)cccc2c1 [2,4,5-trimethylnaphthalene]",fold_change,[1]; [3],-0.1188
same,fold_change,[1]; [4],-0.09148
same,fold_change,[1]; [5],-0.4407
same,fold_change,"[1]; period dark, round 2, conc 12.8",-0.3131
same,fold_change,"[1]; period dark, round 2, conc 16",-0.104
same,fold_change,"[1]; period dark, round 2, conc 20",-0.2326
same,fold_change,[1]; [7],-0.1438
same,fold_change,[1]; [8],-0.1964
same,fold_change,[1]; [9],0.215
same,fold_change,"[1]; period light, round 2, conc 12.8",-0.6609
same,fold_change,"[1]; period light, round 2, conc 16",0.3746
same,fold_change,"[1]; period light, round 2, conc 20",0.3257
same,BMC50 AXIS (curved or bent body axis at 120 hpf),"[2]; Fig. 2, nominal concentration",24.2 µM
same,BMC50 CRAN (craniofacial malformation at 120 hpf),"[2]; Fig. 2, nominal concentration",24.8 µM
same,BMC50 MO24 (mortality at 24 hpf),"[2]; Fig. 2, nominal concentration",25.7 µM
same,BMC50 MORT (mortality at 120 hpf),"[2]; Fig. 2, nominal concentration",24.2 µM
same,BMC50 Any effect,[2]; nominal concentration,22 µM
same,any effect BMD50,[2],22.04 µM
same,"bmd, MO24","[2]; benchmark dose, endpoint MO24",25.7458
same,"bmd, MORT","[2]; benchmark dose, endpoint MORT",24.2071
same,"bmd, ANY_",[2]; [11],22.0373
same,"bmd, AXIS",[2]; [12],24.1954
same,"bmd, CRAN",[2]; [13],24.8219
"Cc1ccc2ccc(C)cc2c1 [2,7-dimethylnaphthalene]",fold_change,[1]; [3],0.1561
same,fold_change,[1]; [4],-0.165
same,fold_change,[1]; [5],-0.13
same,fold_change,"[1]; period dark, round 1, conc 25",-0.7363
same,fold_change,"[1]; period dark, round 1, conc 50",-0.8227
same,fold_change,[1]; [7],0.7628
same,fold_change,[1]; [8],0.4574
same,fold_change,[1]; [9],1.067
same,fold_change,"[1]; period light, round 1, conc 25",1.005
same,fold_change,"[1]; period light, round 1, conc 50",0.2181
same,estimated percent Any effect,[2],12%
CCc1ccc2ccccc2c1 [2-ethylnaphthalene],fold_change,[1]; [3],-0.0209
same,fold_change,[1]; [4],-0.02917
same,fold_change,[1]; [5],-0.4131
same,fold_change,"[1]; period dark, round 1, conc 25",-0.9177
same,fold_change,"[1]; period dark, round 2, conc 30",-0.0665
same,fold_change,[1]; [6],-0.3116
same,fold_change,[1]; [7],-0.3417
same,fold_change,[1]; [8],0.05317
same,fold_change,[1]; [9],0.3434
same,fold_change,"[1]; period light, round 1, conc 25",-0.2321
same,fold_change,"[1]; period light, round 2, conc 30",0.3708
same,fold_change,[1]; [10],-0.3232
same,BMC50 AXIS (curved or bent body axis at 120 hpf),"[2]; Fig. 2, nominal concentration",44.9 µM
same,BMC50 CRAN (craniofacial malformation at 120 hpf),"[2]; Fig. 2, nominal concentration",45.7 µM
same,BMC50 EDEM (pericardial and/or yolk sac edema at 120 hpf),"[2]; Fig. 2, nominal concentration",42.3 µM
same,BMC50 LTRK (lower trunk and/or caudal fin at 120 hpf),"[2]; Fig. 2, nominal concentration",49.8 µM
same,BMC50 MO24 (mortality at 24 hpf),"[2]; Fig. 2, nominal concentration",47.1 µM
same,BMC50 MORT (mortality at 120 hpf),"[2]; Fig. 2, nominal concentration",44.6 µM
same,BMC50 Any effect,[2]; nominal concentration,35.2 µM
same,any effect BMD50,[2],35.16 µM
same,"bmd, MO24","[2]; endpoint MO24, benchmark dose",47.121
same,"bmdL, MO24","[2]; endpoint MO24, lower limit of benchmark dose",45.5775
same,"bmdU, MO24","[2]; endpoint MO24, upper limit of benchmark dose",48.8332
same,"bmd, MORT","[2]; endpoint MORT, benchmark dose",44.5979
same,"bmdL, MORT","[2]; endpoint MORT, lower limit of benchmark dose",42.8494
same,"bmdU, MORT","[2]; endpoint MORT, upper limit of benchmark dose",46.3328
same,"bmd, ANY_","[2]; morphology endpoint ANY_, benchmark dose",35.1578
same,"bmdL, ANY_","[2]; morphology endpoint ANY_, lower limit of benchmark dose",33.394
same,"bmdU, ANY_","[2]; morphology endpoint ANY_, upper limit of benchmark dose",36.9258
same,"bmd, AXIS","[2]; morphology endpoint AXIS, benchmark dose",44.9036
same,"bmdL, AXIS","[2]; morphology endpoint AXIS, lower limit of benchmark dose",41.901
same,"bmdU, AXIS","[2]; morphology endpoint AXIS, upper limit of benchmark dose",49.465
same,"bmd, CRAN","[2]; morphology endpoint CRAN, benchmark dose",45.7058
same,"bmdL, CRAN","[2]; morphology endpoint CRAN, lower limit of benchmark dose",42.7078
same,"bmdU, CRAN","[2]; morphology endpoint CRAN, upper limit of benchmark dose",50.351
same,"bmd, EDEM","[2]; morphology endpoint EDEM, benchmark dose",42.2958
same,"bmdL, EDEM","[2]; morphology endpoint EDEM, lower limit of benchmark dose",39.552
same,"bmdU, EDEM","[2]; morphology endpoint EDEM, upper limit of benchmark dose",46.0615
same,"bmd, LTRK","[2]; morphology endpoint LTRK, benchmark dose",49.8262
same,"bmdL, LTRK","[2]; morphology endpoint LTRK, lower limit of benchmark dose",46.6984
same,"bmdU, LTRK","[2]; morphology endpoint LTRK, upper limit of benchmark dose",55.8128
